In assay [1] the test system is platelets. The note with it: cited from earlier work.
The conditions of assay [2]: oral, rat carotid balloon injury; cited from earlier work.
In assay [3] the target is T1, PAR4 (Homo sapiens, UniProt Q96RI0).
T1 construct: host or cells: platelets (cited work)
T1 sequence (Q96RI0 18-385): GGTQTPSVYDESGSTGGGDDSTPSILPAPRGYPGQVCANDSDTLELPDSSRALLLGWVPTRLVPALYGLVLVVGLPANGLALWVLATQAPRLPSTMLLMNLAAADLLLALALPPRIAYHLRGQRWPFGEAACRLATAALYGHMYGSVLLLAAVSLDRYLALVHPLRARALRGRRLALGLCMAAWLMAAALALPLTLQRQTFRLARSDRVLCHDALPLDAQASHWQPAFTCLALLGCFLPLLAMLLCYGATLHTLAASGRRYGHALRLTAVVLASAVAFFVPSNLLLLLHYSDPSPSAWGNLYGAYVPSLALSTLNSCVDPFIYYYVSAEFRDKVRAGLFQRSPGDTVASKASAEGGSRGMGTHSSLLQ
The following applies: cited from earlier work.

Assay [4] addresses T2, PAR4-Thr120 (Homo sapiens, UniProt Q96RI0, A120T).
T2 construct: endogenous in cells; host or cells: washed platelets of human donors homozygous for rs773902 A (Thr120)
T2 sequence (Q96RI0 18-385 A120T): T1 sequence (Q96RI0 18-385) with A103T
Put plainly: PAR4-AP-induced platelet aggregation, platelets of PAR4-Thr120 homozygotes. Type of assay: cell-based. The following applies: homozygous PAR4-Thr120, up to 1 μM YD-3, 100 μM PAR4-AP, FIG. 5C. As to the method: (§1) FIGS. 5A-5C show PAR4 variants are differentially susceptible to pharmacological inhibition. Platelets from donors genotyped for rs773902 were washed, incubated with the indicated concentrations of vorapaxar (VPX) (FIGS. 5A, 5B) or YD-3 (FIG. 5C) and then stimulated with (FIG. 5A) 5 μM PAR1-AP or (FIGS. 5B, 5C) 100 μM PAR4-AP. Aggregation was measured using light transmission aggregometry. n=3 each genotype. Horizontal lines indicate mean. (P=0.02).
(§2) Platelets were pre-incubated with the indicated concentrations of vorapaxar^26 (Axon Medchem, Reston, Va., USA) or YD-3 [1-benzyl-3-(ethoxycarbonylphenyl)-indazole]^7 (a gift from Dr. Craig Lindsley at Vanderbilt University) as previously described.^27 Aggregation was then quantified after stimulation with 5 μM PAR1-AP or 100 μM PAR4-AP.
(§3) Multiple linear regression analysis was performed including the PAR4 protein level and the risk SNPs as explanatory variables and PAR4 reactivity as the dependent variable. To determine fraction of variance of PAR4 reactivity explained by PAR4 protein levels and F2RL3 genotype, PAR4 protein level was brought into the model first followed by rs773902 genotype. To test for an interaction between rs773902 and YD-3, a linear regression was performed, using aggregation as the dependent variable and PAR4-AP concentration, YD3 concentration, and rs773902 genotype as […]. […]

The test system of assay [5] is PAR4. Put plainly: PAR4-AP-induced platelet aggregation, light transmission aggregometry, donors genotyped for rs773902. The assay is classed as cell-based, human. The note with it: 100 μM PAR4-AP. The method, then: as §1, with “rs773902” left out, “(P=0.02). […] Craig Lindsley at Vanderbilt University) as previously described.^27 Aggregation was then quantified after stimulation with 5 μM PAR1-AP or 100 μM PAR4-AP.” for “(P=0.02).”

The subject of assay [6] is smooth muscle cell. The following applies: cited from earlier work.
Assay [7] concerns platelets. The following applies: cited from earlier work. The source holds these as a separate data set.
The target of assay [8] is T3, PAR4-Ala120 (Homo sapiens, UniProt Q96RI0).
T3 construct: endogenous in cells; host or cells: washed platelets of human donors homozygous for rs773902 G (Ala120)
T3 sequence (Q96RI0 18-385): T1 sequence (Q96RI0 18-385)
In words: PAR4-AP-induced platelet aggregation, platelets of PAR4-Ala120 homozygotes. Type of assay: cell-based. The following applies: 0.5 μM YD-3, 100 μM PAR4-AP, FIG. 5C. The method, then:
as §1, §2, §3

For assay [9], the target named is T4, PAR1 (Homo sapiens, UniProt P25116).
T4 construct: endogenous in cells; host or cells: washed platelets of healthy human donors (cohort 2)
T4 sequence (P25116 22-425): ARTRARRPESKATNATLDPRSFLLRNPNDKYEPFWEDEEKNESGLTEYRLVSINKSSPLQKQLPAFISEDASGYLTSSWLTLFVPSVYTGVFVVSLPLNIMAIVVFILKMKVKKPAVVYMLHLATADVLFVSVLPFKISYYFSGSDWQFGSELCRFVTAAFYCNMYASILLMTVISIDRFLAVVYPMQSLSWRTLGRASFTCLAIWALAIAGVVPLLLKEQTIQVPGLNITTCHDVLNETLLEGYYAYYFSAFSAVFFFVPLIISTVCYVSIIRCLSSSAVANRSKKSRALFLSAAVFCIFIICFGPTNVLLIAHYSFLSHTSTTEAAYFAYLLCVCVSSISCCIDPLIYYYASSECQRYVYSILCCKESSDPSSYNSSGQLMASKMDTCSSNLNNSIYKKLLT
In words: PAR1-AP-induced platelet aggregation, light transmission aggregometry. The following applies: washed platelets, 5 μM PAR1-AP, FIG. 5A. The assay is classed as cell-based. As to the method: Platelets from donors genotyped for […] were washed, incubated with the indicated concentrations of vorapaxar (VPX) (FIGS. 5A, 5B) or YD-3 (FIG. 5C) and then stimulated with (FIG. 5A) 5 μM PAR1-AP or (FIGS. 5B, 5C) 100 μM PAR4-AP. Aggregation was measured using light transmission aggregometry. n=3 each genotype. Horizontal lines indicate mean. […] Craig Lindsley at Vanderbilt University) as previously described.^27 Aggregation was then quantified after stimulation with 5 μM PAR1-AP or 100 μM PAR4-AP.

Molecules are shown by their SMILES. Residue numbers refer to the chain shown, from its start. Entries after “also recorded” stand apart in the source; their conditions may differ.

With `CCOC(=O)c1ccc(-c2nn(Cc3ccccc3)c3ccccc23)cc1` [YD-3, ethyl 4-(1-benzyl-1H-indazol-3-yl)benzoate], the “block of thrombin-induced platelet recruitment” value in [1] is “blocks”. In addition, the intimal thickening result in assay [2] was “attenuates”. For the same compound, the “block of PAR4-induced platelet aggregation” value in assay [3] was “specifically blocks; also recorded: blocking”. Moreover, the “inhibition of PAR4-induced platelet aggregation” value was “resistant” in [4]; “intermediate response” in assay [5] (rs773902 heterozygotes, FIG. 5C); “inhibited” in [8]. In assay [6], the “block of thrombin-induced smooth muscle cell proliferation” value is listed as “blocks”. The “block of neutrophil-induced platelet aggregation” value in assay [7] is given as “blocks”.

`CCOC(=O)N[C@@H]1CC[C@@H]2[C@@H](C1)C[C@H]1C(=O)O[C@H](C)[C@H]1[C@H]2/C=C/c1ccc(-c2cccc(F)c2)cn1` [vorapaxar]: in [9], the “inhibition of platelet aggregation through PAR1” value is on record as “efficiently inhibited”. Also, the “effect on PAR4-induced platelet aggregation” value in assay [5] (washed platelets, regardless of rs773902 genotype, FIG. 5B) is given as “no effect”.

The values above are taken from patent US9789087B2, “PAR4 inhibitor therapy for patients with PAR4 polymorphism” (THOMAS JEFFERSON UNIVERSITY, priority 2015, dated 2017).
